System: Human Pan T Cell (IL-2 release)
Test: IL2 released by human pan T cell upon anti-CD3/anti-CD28 stimulation (ELISA)
Format: cell-based
Conditions: human pan T cells; for EC (2-fold response) / maximal fold induction / EC50: Homo sapiens, T-cell; for EC (2-fold response) / maximal fold induction: 48 h; for EC (2-fold response) / EC2x (nM): concentration of compound that gives 200% IL-2 response (2 folds) over DMSO control; for maximal fold induction: response of IL-2 over DMSO control, anti-CD3/anti-CD28, 48 hours, ELISA, read-out: IL-2 Max Fold Response; for EC50: IL-2 response, calculated with GraphPad Prism
Procedure, shortened: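 Primary human pan-T cells, negatively isolated from PBMC, plated at 100,000 cells/well and stimulated with immobilized anti-CD3 plus soluble anti-CD28 in presence of test compound at varying concentrations. After 2 days, secreted IL-2 in supernatant quantified by ELISA.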

Row | SMILES | EC (2-fold response) [µM] | maximal fold induction | EC50 [nM] | EC2x (nM)
1 | COc1cc2c(cc1Nc1ncc(Cl)c(N3CC(CC(=O)O)c4ccccc43)n1)CN(C)CC2 (stereo not drawn) [Example 128] | 0.1 to 0.5 | > 2 | 100 to 500 | –
2 | COc1cc2c(cc1Nc1ncc(Cl)c(-n3cc(CC(=O)O)c4ccccc43)n1)CN(C)CC2 [Example 129] | 0.1 to 0.5 | > 2 | 100 to 500 | –
3 | COc1cc2c(cc1Nc1ncc(Cl)c(-n3cc(CC(=O)OC(C)C)c4ccccc43)n1)CN(C)CC2 [Example 130, Isopropyl 2-(1-(5-chloro-2-((6-methoxy-2-methyl-1,2,3,4-tetrahydroisoquinolin-7-yl)amino)pyrimidin-4-yl)-1H-indol-3-yl)acetate] | – | < 2 | – | –
4 | COc1cc2c(cc1Nc1ncc(Cl)c(-n3cc(CC(N)=O)c4ccccc43)n1)CN(C)CC2 [Example 133] | – | < 2 | > 1000 | –
5 | COc1cc2c(cc1Nc1ncc(Cl)c(-n3cc(CC#N)c4ccccc43)n1)CN(C)CC2 [Example 134] | – | < 2 | > 1000 | –
6 | COc1cc2c(cc1Nc1ncc(Cl)c(-n3cc(Cc4nn[nH]n4)c4ccccc43)n1)CN(C)CC2 [Example 135, N-(4-(3-((2H-tetrazol-5-yl)methyl)-1H-indol-1-yl)-5-chloropyrimidin-2-yl)-6-methoxy-2-methyl-1,2,3,4-tetrahydroisoquinolin-7-amine] | – | < 2 | > 1000 | –
7 | CNC(=O)Cc1cn(-c2nc(Nc3cc4c(cc3OC)CCN(C)C4)ncc2Cl)c2ccccc12 [Example 136] | – | < 2 | 500 to 1000 | –
8 | COc1cc2c(cc1Nc1ncc(Cl)c(-n3cc(CC(=O)NCC#N)c4ccccc43)n1)CN(C)CC2 [Example 137] | – | < 2 | 500 to 1000 | –
9 | COc1cc2c(cc1Nc1ncc(Cl)c(-n3cc(CC(=O)O)c4cc(F)ccc43)n1)CN(C)CC2 [Example 138] | 0.1 to 0.5 | > 2 | 100 to 500 | –
10 | COc1cc2c(cc1Nc1ncc(Cl)c(-n3cc(CC(=O)O)c4ccc(F)cc43)n1)CN(C)CC2 [Example 139] | ≤ 0.1 | > 2 | ≤ 100 | –
11 | COc1cc2c(cc1Nc1ncc(Cl)c(-n3cc(CC(=O)O)c4cc(F)c(F)cc43)n1)CN(C)CC2 [Example 140] | 0.1 to 0.5 | > 2 | 100 to 500 | –
12 | COc1cc2c(cc1Nc1ncc(Cl)c(-n3nc(CC(=O)O)c4ccccc43)n1)CN(C)CC2 [Example 141] | – | > 2 | > 1000 | ++ (“++”, for higher values than “+++” but less than or equal to 1 μM)
13 | COc1cc2c(cc1Nc1ncc(Cl)c(-n3cc(C(C)C(=O)O)c4ccccc43)n1)CN(C)CC2 (stereo not drawn) [Example 142] | – | < 2 | 100 to 500 | –
14 | COC(=O)CC1(C)CN(c2nc(Nc3cc4c(cc3OC)CCN(C)C4)ncc2Cl)c2ccccc21 (stereo not drawn) [Example 145] | – | < 2 | – | –
15 | COc1cc2c(cc1Nc1ncc(Cl)c(N3CC(C)(CC(=O)O)c4ccccc43)n1)CN(C)CC2 (stereo not drawn) [Example 146] | ≤ 0.1 | > 2 | ≤ 100 | –
16 | CCOC(=O)CC1(C)CN(c2nc(Nc3cc4c(cc3OC)CCN(C)C4)ncc2Cl)c2ccccc21 (stereo not drawn) [Example 149] | – | < 2 | – | –
17 | COc1cc2c(cc1Nc1ncc(Cl)c(N3CC(C)(CC(=O)O)c4cc(F)ccc43)n1)CN(C)CC2 (stereo not drawn) [Example 150, 2-(1-(5-Chloro-2-((6-methoxy-2-methyl-1,2,3,4-tetrahydroisoquinolin-7-yl)amino)pyrimidin-4-yl)-5-fluoro-3-methylindolin-3-yl)acetic acid] | ≤ 0.1 | > 2 | ≤ 100 | –
18 | COc1cc2c(cc1Nc1ncc(Cl)c(N3CC(C)(CC(=O)O)c4ccc(F)cc43)n1)CN(C)CC2 (stereo not drawn) [Example 151] | ≤ 0.1 | > 2 | ≤ 100 | –
19 | COc1cc2c(cc1Nc1ncc(Cl)c(N3CC(C)(CC(=O)O)c4cc(F)c(F)cc43)n1)CN(C)CC2 (stereo not drawn) [Example 154] | ≤ 0.1 | > 2 | ≤ 100 | –
20 | CN1CCc2cc(F)c(Nc3ncc(Cl)c(N4CC(C)(CC(=O)O)c5ccccc54)n3)cc2C1 (stereo not drawn) [Example 156] | ≤ 0.1 | > 2 | ≤ 100 | –
21 | CCN1CCc2cc(OC)c(Nc3ncc(Cl)c(N4CC(C)(CC(=O)O)c5ccccc54)n3)cc2C1 (stereo not drawn) [Example 157, 2-(1-(5-Chloro-2-((2-ethyl-6-methoxy-1,2,3,4-tetrahydroisoquinolin-7-yl)amino)pyrimidin-4-yl)-3-methylindolin-3-yl)acetic acid] | ≤ 0.1 | > 2 | ≤ 100 | –
22 | COc1cc2c(cc1Nc1ncc(Cl)c(N3CC(C)(CC(=O)O)c4ccccc43)n1)CN(C(C)C)CC2 (stereo not drawn) [Example 158, 2-(1-(5-Chloro-2-((2-isopropyl-6-methoxy-1,2,3,4-tetrahydroisoquinolin-7-yl)amino)pyrimidin-4-yl)-3-methylindolin-3-yl)acetic acid] | ≤ 0.1 | > 2 | ≤ 100 | –
23 | COc1cc2c(cc1Nc1ncc(Cl)c(N3CC(C)(CC(=O)O)c4ccccc43)n1)CN(C)C2 (stereo not drawn) [Example 159, 2-(1-(5-Chloro-2-((6-methoxy-2-methylisoindolin-5-yl)amino)pyrimidin-4-yl)-3-methylindolin-3-yl)acetic acid] | ≤ 0.1 | > 2 | ≤ 100 | –
24 | COc1cc2c(cc1Nc1ncc(Cl)c(N3CC(C)(CC(=O)O)c4ccccc43)n1)CNCC2 (stereo not drawn) [Example 160, 2-(1-(5-Chloro-2-((6-methoxy-1,2,3,4-tetrahydroisoquinolin-7-yl)amino)pyrimidin-4-yl)-3-methylindolin-3-yl)acetic acid methanesulfonic acid] | ≤ 0.1 | > 2 | ≤ 100 | –
25 | COc1cc2c(cc1Nc1ncc(Cl)c(-c3cn(CC(=O)O)c4ccccc34)n1)CN(C)CC2 [Example 161] | – | > 2 | > 1000 | + (“+”, for greater than 1 μM)
26 | COc1cc2c(cc1Nc1ncc(Cl)c(-c3nn(CC(=O)O)c4ccccc34)n1)CN(C)CC2 [Example 162, 2-(3-(5-Chloro-2-((6-methoxy-2-methyl-1,2,3,4-tetrahydroisoquinolin-7-yl)amino)pyrimidin-4-yl)-1H-indazol-1-yl)acetic acid] | – | < 2 | – | –
27 | COc1cc2c(cc1Nc1nccc(N3CC(C(=O)O)c4ccccc43)n1)CN(C)CC2 (stereo not drawn) [Example 163, 1-(2-((6-Methoxy-2-methyl-1,2,3,4-tetrahydroisoquinolin-7-yl)amino)pyrimidin-4-yl)indoline-3-carboxylic acid] | – | > 2 | > 1000 | + (“+”, for greater than 1 μM)
28 | COc1cc2c(cc1Nc1ncc3cc(C#N)n(-c4ccccc4)c3n1)CN(C)CC2 [Example 164, 2-((6-Methoxy-2-methyl-1,2,3,4-tetrahydroisoquinolin-7-yl)amino)-7-phenyl-7H-pyrrolo[2,3-d]pyrimidine-6-carbonitrile] | – | < 2 | ≤ 100 | –
29 | COc1cc2c(cc1Nc1ncc(Cl)c(N3CC(C(=O)O)C4(CCCCC4)C3)n1)CN(C)CC2 (stereo not drawn) [Example 167, 2-(5-Chloro-2-((6-methoxy-2-methyl-1,2,3,4-tetrahydroisoquinolin-7-yl)amino)pyrimidin-4-yl)-2-azaspiro[4.5]decane-4-carboxylic acid] | 0.1 to 0.5 | > 2 | 500 to 1000 | –
30 | COc1cc2c(cc1Nc1ncc(Cl)c(N3CC(C(=O)O)C4(CCCC4)C3)n1)CN(C)CC2 (stereo not drawn) [Example 169, 2-(5-Chloro-2-((6-methoxy-2-methyl-1,2,3,4-tetrahydroisoquinolin-7-yl)amino)pyrimidin-4-yl)-2-azaspiro[4.4]nonane-4-carboxylic acid] | – | > 2 | > 1000 | ++ (“++”, for higher values than “+++” but less than or equal to 1 μM)
